Patent US11384381B2, “Reaction accelerating agent” (Kikkoman Corporation, priority 2016, dated 2022)

Columns and labels:
Format in all cases: biochemical
[1] = test system: fructosyl amino acid oxidase (FAOD-E); assay: Acceleration of fructosyl valine detection reaction with small amount of fructosyl amino acid oxidase (Example 9); details: 0.04% (w/v) compound, 2.14 U/ml FAOD-E; for effect of accelerating fructosyl valine detection reaction: versus not added; for Degree of progression of reaction (%) after 7.5 minutes / Degree of progression of reaction (%) after 10 minutes: fructosyl valine detection reaction, ΔA/ΔA100%; for Degree of progression of reaction (%) after 7.5 minutes: 2.5 minutes after addition of second reagent, not added: 29; for Degree of progression of reaction (%) after 10 minutes: 5 minutes after addition of second reagent, not added: 48
Method: Next, in this Example, the degree of acceleration of fructosyl valine detection reaction by the compound of the present invention was determined using a small amount of fructosyl amino acid oxidase.
A reagent for fructosyl valine measurement having the following composition was prepared, and the measurement of fructosyl valine was carried out using Bio Majesty JCA-BM1650 (manufactured by JEOL Ltd.).
32 μM fructosyl valine (manufactured by Kikkoman Biochemifa Company)
30 mM MOPS-NaOH buffer solution, pH 8.0
0.2% (v/v) NYMEEN F-215 (manufactured by NOF Corp.)
(§1) 10 U/ml peroxidase PEO-301 (Toyobo Co., Ltd.)
(§2) 0.023 mM 10-(carboxymethylaminocarbonyl)-3,7-bis(dimethylamino)phenothiazine sodium (DA-67, manufactured by Wako Pure Chemical Industries, Ltd.)
(§3) 0.04% (w/v) of the compound of Comparative Example 2, any one compound of the present invention, or compound-free (Comparative Example 1) ion-exchange water as shown in Table 1
10 mM MOPS-NaOH buffer solution, pH 8.0
2.14 U/ml FAOD-E (manufactured by Kikkoman Biochemifa Company)
8 μl of the sample was added to 96 μl of the first reagent-C, and the mixture was incubated at 37° C. for 5 minutes. Then, 24 μl of the second reagent-F was added thereto, and the quantitative reaction of hydrogen peroxide resulting from the oxidation of fructosyl valine was allowed to progress at 37° C. for 5 minutes. The absorbance (A694 and A751) of the reaction solution for light at wavelengths of 694 nm and 751 nm was measured over time for 10 minutes after the mixing of the sample with the first reagent-C to determine the value of subtraction of A751 from A694, i.e., the value A694/751. Subsequently, ΔA was calculated by subtracting, from A694/751, the value of (104/128) times A694/751 4.8 minutes after the mixing of the sample with the first reagent-C. Incidentally, 5 minutes after the mixing of the sample with the first reagent-C represents the time immediately before the addition of the second reagent-F.
(§4) Next, ΔA calculated in this Example was divided by ΔA100% defined in Example 8 to calculate the degree of progression of fructosyl valine detection reaction. The degree of progression of fructosyl valine detection reaction 7.5 and 10 minutes after the mixing of the sample with the first reagent-C (in other words, 2.5 and 5 minutes after the addition of the second reagent-F) is shown in Table 6.

[2] = test system: fructosyl peptide oxidase (FPOX-CET); assay: Fructosyl valyl histidine detection reaction completed with excess fructosyl peptide oxidase (Example 6); details: 0.04% (w/v) compound, 4.8 U/ml FPOX-CET (excess), 32 μM fructosyl valyl histidine, pH 7.0, 37° C.; for ΔA9 min: change in A694-A751 9 minutes after mixing; for ΔA10 min: change in A694-A751 10 minutes after mixing, defined as ΔA100%
Method: In this Example the amount of change in absorbance is determined when the detection reaction of the substrate fructosyl valyl histidine was completed using an excess amount of fructosyl peptide oxidase (FPOX-CET), which is an oxidase.
A reagent for fructosyl valyl histidine measurement having the following composition was prepared, and the measurement of fructosyl valyl histidine using fructosyl peptide oxidase was carried out using Bio Majesty JCA-BM1650 (manufactured by JEOL Ltd.).
(§5) 32 μM fructosyl valyl histidine (manufactured by Kikkoman Biochemifa Company)
(§6) 30 mM MOPS-NaOH buffer solution, pH 7.0
(§7) 0.2% (v/v) Triton X-100 (manufactured by Wako Pure Chemical Industries, Ltd.)
as §1, §2, §3
(§8) 10 mM MOPS-NaOH buffer solution, pH 7.0
4.8 U/ml FPOX-CET (manufactured by Kikkoman Biochemifa Company)
8 μl of the sample was added to 96 μl of the first reagent-B, and the mixture was incubated at 37° C. for 5 minutes. Then, 24 μl of the second reagent-C was added thereto, and the quantitative reaction of hydrogen peroxide resulting from the oxidation of fructosyl valyl histidine was allowed to progress at 37° C. for 5 minutes. The absorbance (A694 and A751) of the reaction solution for light at wavelengths of 694 nm and 751 nm was measured over time for 10 minutes after the mixing of the sample with the first reagent-B to determine the value of subtraction of A751 from A694, i.e., the value A694/751. Subsequently, ΔA was calculated by subtracting, from […], the value of (104/128) times A694/751 4.8 minutes after the mixing of the sample with the first reagent-B. Incidentally, 4.8 minutes after the mixing of the sample with the first reagent-B represents the time immediately before the addition of the second reagent-C. ΔA 9 minutes and 10 minutes after the mixing of the diluted sample with the first reagent-B (ΔA9min and ΔA10min) are shown in Table 3.
In other words, it can be recognized that the quantitative reaction of fructosyl valyl histidine, i.e., the quantitative reaction of hydrogen peroxide resulting from the oxidation of fructosyl valyl histidine, was completed in 10 minutes after the mixing of the diluted sample with the first reagent-B. Accordingly, in Examples 6 and 7, ΔA10min in each Comparative Example or the present invention was defined as ΔA when 100% of the quantitative reaction of […] progressed under each condition (ΔA100%).

[3] = test system: fructosyl peptide oxidase (FPOX-CET); assay: Acceleration of fructosyl valyl histidine detection reaction with small amount of fructosyl peptide oxidase (Example 7); details: 0.04% (w/v) compound, 0.48 U/ml FPOX-CET; for effect of accelerating the fructosyl valyl histidine detection reaction: versus not added; for Degree of progression of reaction (%) after 7.5 minutes / Degree of progression of reaction (%) after 10 minutes: fructosyl valyl histidine detection reaction, ΔA/ΔA100%; for Degree of progression of reaction (%) after 7.5 minutes: 2.5 minutes after addition of second reagent, not added: 57; for Degree of progression of reaction (%) after 10 minutes: 5 minutes after addition of second reagent, not added: 81
Method: Next, in this Example, the degree of acceleration of fructosyl valyl histidine detection reaction by the compound of the present invention was determined using a small amount of fructosyl peptide oxidase.
A reagent for fructosyl valyl histidine measurement having the following composition was prepared, and the measurement of fructosyl valyl histidine was carried out using Bio Majesty JCA-BM 1650 (manufactured by JEOL Ltd.).
as §5, §6, §7, §1, §2, §3, §8
0.48 U/ml FPOX-CET (manufactured by Kikkoman Biochemifa Company)
8 μl of the sample was added to 96 μl of the first reagent-B, and the mixture was incubated at 37° C. for 5 minutes. Then, 24 μl of the second reagent-D was added thereto, and the quantitative reaction of hydrogen peroxide resulting from the oxidation of fructosyl valyl histidine was allowed to progress at 37° C. for 5 minutes. The absorbance (A694 and A751) of the reaction solution for light at wavelengths of 694 nm and 751 nm was measured over time for 10 minutes after the mixing of the sample with the first reagent-B to determine the value of subtraction of A751 from A694. i.e., the value A694/751. Subsequently, ΔA was calculated by subtracting, from A694/751, the value of (104/128) times A694/751 4.8 minutes after the mixing of the sample with the first reagent-B. Incidentally, 5 minutes after the mixing of the sample with the first reagent-B represents the time immediately before the addition of the second reagent-D.
as §4, with “[…]” for “ΔA100%”, “6” for “8”, “valyl histidine” for “valine”, “reagent-B” for “reagent-C”, “reagent-D)” for “reagent-F)”, “4.” for “6.”

Row | Molecule | effect of accelerating fructosyl valine detection reaction [1] | Degree of progression of reaction (%) after 7.5 minutes [1] [%] | Degree of progression of reaction (%) after 10 minutes [1] [%] | ΔA9 min [2] | ΔA10 min [2] | effect of accelerating the fructosyl valyl histidine detection reaction [3] | Degree of progression of reaction (%) after 7.5 minutes [3] [%] | Degree of progression of reaction (%) after 10 minutes [3] [%]
1 | COc1cc(N=Nc2ccc(N)cc2)c(C)cc1N [Disperse Diazo Black 3BF] | effect of accelerating fructosyl valine detection reaction | 86 | 89 |  |  |  |  | 
2 | O=C([O-])c1cc(N=Nc2cccc([N+](=O)[O-])c2)ccc1O.[Na+] [Alizarin Yellow GG] | effect of accelerating fructosyl valine detection reaction | 38 | 62 |  |  |  |  | 
3 | COc1cc(N=Nc2cccc(S(=O)(=O)[O-])c2)ccc1NC(=O)Nc1ccc(N=Nc2ccc(O)c(C(=O)[O-])c2)cc1.[Na+].[Na+] [Direct Yellow 44] |  |  |  | 0.043 | 0.043 | effect of accelerating the fructosyl valyl histidine detection reaction | 66 | 88
4 | Cc1nn(-c2cc(S(=O)(=O)[O-])ccc2Cl)c(O)c1N=Nc1ccccc1.[Na+] [Acid Yellow 34] |  |  |  | 0.032 | 0.033 | effect of accelerating the fructosyl valyl histidine detection reaction | 62 | 86
5 | Xylene Fast Yellow 2G |  |  |  | 0.027 | 0.027 | effect of accelerating the fructosyl valyl histidine detection reaction | 63 | 96
6 | O=C([O-])c1cc(N=Nc2ccc([N+](=O)[O-])cc2)ccc1O.[Na+] [Mordant Orange 1] | effect of accelerating fructosyl valine detection reaction | 37 | 59 |  |  |  |  | 
7 | O=C(O)c1cc(N=Nc2ccc3cc(S(=O)(=O)O)ccc3c2)ccc1O.[Na] [Chrome Yellow] | effect of accelerating fructosyl valine detection reaction | 43 | 68 | 0.064 | 0.064 | effect of accelerating the fructosyl valyl histidine detection reaction | 62 | 86
